Source: patent publication US8901312B2, “Cyclic compound, method for producing cyclic compound, and method for modifying biological molecule” (JNC Corporation, priority 2010, dated 2014)
Read-outs that look alike come from different tables or passages of the source.

Tests used:
[1] = test system: azido-HaloTag protein (GST-HaloTag protein on GSH-Sepharose resin); assay: Fluorescence labeling of azido-HaloTag protein by SPDC reaction, SDS-PAGE fluorescence imaging; format: biochemical
[2] = test system: azido-glycoconjugates on the surface of HEK293 cells; assay: Fluorescence labeling of azido-glycoconjugates on the surface of living cells; format: cell-based
HEK293 cells = assay: Cytotoxicity assay in living cells; format: cell-based; details: 0 to 80 μM, incubation overnight
Procedure: Finally, cytotoxicity assay of diyne 3 was performed in living cells. HEK293 cells were incubated and diyne 3 was added to the cells in a concentration of 0 to 80 μM, followed by incubation overnight. Morphological images of the cells after incubation, which were taken under a phase-contrast microscope and visualized with Adobe Photoshop CS2, are shown in FIG. 10.

SMILES: C1#Cc2ccccc2C#Cc2ccccc21 [diyne 3, sym-dibenzo-1,5-cyclooctadiene-3,7-diyne]
- fluorescence labeling efficiency of azido-HaloTag protein ([1]; sequential SPDC reaction: diyne 3, wash, then TESRA-PEO3-azide (9)): approximately 45%
- total labeling efficiency of TESRA-labeled HaloTag protein ([1]; simultaneous SPDC reaction with TESRA-PEO3-azide (9), relative to TESRA-HaloTag ligand (10) labeling taken as almost 100%): ~40%
- reaction time at which labeling efficiency became maximum ([2]; 40 μM diyne 3, HEK293 cells with azido-glycoconjugates, 0 to 48 minutes): approximately 20 minutes
- fluorescence labeling of cell surface azido-glycoconjugates (result in words) ([2]; HEK293 cells cultured with Ac4ManNAz): a reliable fluorescence signal was detected
- cytotoxicity (cell morphology, phase-contrast microscope) (HEK293 cells): did not show cytotoxicity

SMILES: O=C(NCCNC(=S)Nc1ccc2c(c1)C(=O)OC21c2ccc(O)cc2Oc2cc(O)ccc21)OC1Cc2ccccc2C#Cc2ccccc21 (stereo not drawn) [monoyne 22, 1-[2-{(11,12-didehydro-5,6-dihydrodibenzo[a,e]cycloocten-5-yl)oxycarbonylamino}ethyl]-3-(5-fluoresceinyl)thiourea]
- fluorescence labeling of cell surface azido-glycoconjugates (result in words) [2]: substantial difference in fluorescence labeling efficiency between the SPDC reaction and the single click reaction was hardly observed
